Where a name gives a salt, the structure may show the parent alone.

The term IC50 denotes the concentration that gives 50% inhibition. Read a low IC50 as greater potency.

Assay [1] relates to Colon cancer cells DLD-1. Briefly: Anticancer activity against cultured colon cancer cells (MTT assay). The assay is classed as cell-based. To be noted: Homo sapiens, DLD-1, 48 hour cultivation. The method, then:
An assay on anticancer activity against cultured colon cancer cells was carried out in the following manner.
(§1) Colon cancer cells DLD-1 were maintained and subcultured in RPMI 1640 medium (containing 10% calf serum). Each of the test compounds (SFAG1 to SFAG3 shown in Table 1) was suspended and diluted in the medium, and then the cancer cells were cultivated together with the medium in a 96-well plate at 3×10^3 cells/well. After 48 hour cultivation, the MTT assay (Mosmann, T: Journal of Immunological Method, 65, 55-63 (1983)) was carried out to compare survival rates.
The results are shown as IC50 in Table 2 below.

Assay [2] deals with T1, DNA polymerase α (Bos taurus, UniProt A0AAA9TD94).
T1 construct: from tissue; host or cells: bovine thymus
T1 sequence (A0AAA9TD94 1-1441): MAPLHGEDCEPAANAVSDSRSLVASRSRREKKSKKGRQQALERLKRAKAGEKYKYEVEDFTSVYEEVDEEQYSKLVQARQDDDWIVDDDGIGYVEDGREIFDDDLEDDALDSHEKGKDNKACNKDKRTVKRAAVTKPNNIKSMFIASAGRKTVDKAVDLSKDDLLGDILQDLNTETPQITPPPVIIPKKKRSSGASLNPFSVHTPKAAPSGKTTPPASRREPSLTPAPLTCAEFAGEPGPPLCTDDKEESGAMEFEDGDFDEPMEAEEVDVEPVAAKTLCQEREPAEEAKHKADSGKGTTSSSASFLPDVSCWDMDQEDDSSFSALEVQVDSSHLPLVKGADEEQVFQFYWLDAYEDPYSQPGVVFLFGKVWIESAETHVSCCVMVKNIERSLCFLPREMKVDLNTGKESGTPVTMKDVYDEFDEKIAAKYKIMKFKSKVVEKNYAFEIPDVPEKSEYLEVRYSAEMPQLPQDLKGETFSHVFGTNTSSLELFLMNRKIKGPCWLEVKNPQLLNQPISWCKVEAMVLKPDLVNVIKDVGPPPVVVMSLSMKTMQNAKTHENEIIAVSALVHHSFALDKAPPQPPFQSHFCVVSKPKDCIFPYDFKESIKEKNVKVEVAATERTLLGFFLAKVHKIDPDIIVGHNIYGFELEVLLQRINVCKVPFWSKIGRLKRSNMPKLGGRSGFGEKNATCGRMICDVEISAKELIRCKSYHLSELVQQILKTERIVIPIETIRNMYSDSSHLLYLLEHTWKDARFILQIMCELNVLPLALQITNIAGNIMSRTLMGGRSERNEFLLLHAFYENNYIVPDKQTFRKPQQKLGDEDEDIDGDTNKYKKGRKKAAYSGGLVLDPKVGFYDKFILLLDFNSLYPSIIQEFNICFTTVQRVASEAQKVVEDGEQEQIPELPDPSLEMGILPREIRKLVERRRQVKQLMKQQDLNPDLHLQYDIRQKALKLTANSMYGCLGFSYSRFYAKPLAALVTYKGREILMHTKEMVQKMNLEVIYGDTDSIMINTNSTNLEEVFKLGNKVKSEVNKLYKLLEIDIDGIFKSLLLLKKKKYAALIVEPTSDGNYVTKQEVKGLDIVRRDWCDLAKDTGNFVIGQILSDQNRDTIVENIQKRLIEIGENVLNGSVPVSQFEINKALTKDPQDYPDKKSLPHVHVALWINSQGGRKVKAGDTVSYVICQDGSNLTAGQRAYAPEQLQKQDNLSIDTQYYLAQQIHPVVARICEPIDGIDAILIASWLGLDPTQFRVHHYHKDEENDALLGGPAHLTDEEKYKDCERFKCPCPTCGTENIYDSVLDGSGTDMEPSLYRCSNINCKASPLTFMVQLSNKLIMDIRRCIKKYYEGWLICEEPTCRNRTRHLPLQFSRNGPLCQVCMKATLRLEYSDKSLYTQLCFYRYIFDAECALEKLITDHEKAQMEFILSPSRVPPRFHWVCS
Briefly: Inhibitory effect against DNA polymerase α ([3H]-dTTP incorporation). The assay is classed as biochemical. To be noted: DNA polymerase α from bovine thymus, 0.05 U, 37° C. for 60 minutes. The procedure: An assay on inhibitory effect against a DNA polymerase α was carried out in the following manner.
Each mixture was added with a buffer containing inorganic salts for the enzymatic reaction, [^3H]-labeled dTTP and compounds for reaction containing a template DNA strand, and incubated at 37° C. for 60 minutes.
After the enzymatic reaction was quenched, the resultant reaction product was fixed on a dedicated filter and subjected to measurement by a liquid scintillation counter. The amount of enzymatically incorporated dTTP was calculated as a radiation dose (cpm) of [^3H]. Note that, each of the sulfofucosylacylglycerol derivatives is a mixture of the S- and R-configurations with respect to an absolute configuration of the carbon of the 2-position of the glycerol moiety.
The results are shown as IC50 in Table 1 below.

For assay [3], the system named is gastric cancer cells NUGC-3. Briefly: Anticancer activity against cultured gastric cancer cells (MTT assay). The assay is classed as cell-based. To be noted: Homo sapiens, NUGC-3, 48 hour cultivation. The method, then:
as §1
An assay on anticancer activity against cultured gastric cancer cells was carried out in the same manner as in the Assay 2 except that gastric cancer cells NUGC-3 were used instead of the colon cancer cells DLD-1.
The results are shown as IC50 in Table 3 below.
On the technique in general: Formazan colour is commonly taken as a measure of viable cells.

Regarding `CCCCCCCCCCCCCCCC(=O)OCC(O)CO[C@H]1O[C@H](CS(=O)(=O)[O-])[C@H](O)[C@H](O)[C@H]1O.[Na+]` (stereo partly drawn) [SFAG2, 3-O-(6-deoxy-6-sulfo-α-D-galactopyranosyl)-1-O-palmitoyl-glycerol sodium salt], the results for the IC50 in assay [1], in assay [2] and in assay [3] were 41.5 µg/mL, 8.64 µM and 41.7 µg/mL, respectively.

In assay [2], `CCCCCCCCCCCCCC(=O)OCC(CO[C@H]1O[C@H](CS(=O)(=O)O)[C@H](O)[C@H](O)[C@H]1O)OC(=O)CCCCCCCCCCCCC` (stereo partly drawn) [SFAG4, 3-O-(6-deoxy-6-sulfo-α-D-galactopyranosyl)-1,2-di-O-myristoyl-glycerol sodium salt] gave an IC50 of 0.657 µM.

Molecule `CCCCCCCCCCCCCCCC(=O)OCC(CO[C@H]1O[C@H](CS(=O)(=O)O)[C@H](O)[C@H](O)[C@H]1O)OC(=O)CCCCCCCCCCCCCCC` (stereo partly drawn) [SFAG5, 3-O-(6-deoxy-6-sulfo-α-D-galactopyranosyl)-1,2-di-O-palmitoyl-glycerol sodium salt] gave a concentration for half-maximal inhibition (IC50) in assay [2] of 0.551 µM.

Turning to `CCCCCCCCCCCCCCCCCC(=O)OCC(O)CO[C@H]1O[C@H](CS(=O)(=O)[O-])[C@H](O)[C@H](O)[C@H]1O.[Na+]` (stereo partly drawn) [SFAG3, 3-O-(6-deoxy-6-sulfo-α-D-galactopyranosyl)-1-O-stearoyl-glycerol sodium salt], the IC50 is 27.5 µg/mL in assay [1], 8.24 µM in assay [2] and 30.3 µg/mL in assay [3].

In the case of `CCCCCCCCCCCCCC(=O)OCC(O)CO[C@H]1O[C@H](CS(=O)(=O)[O-])[C@H](O)[C@H](O)[C@H]1O.[Na+]` (stereo partly drawn) [SFAG1, 3-O-(6-deoxy-6-sulfo-α-D-galactopyranosyl)-1-O-myristoyl-glycerol sodium salt], the results for the IC50 in assay [1], in assay [2] and in assay [3] were 44 µg/mL, 7.63 µM and 44.3 µg/mL, respectively.

Consider `CCCCCCCCCCCCCCCCCC(=O)OCC(CO[C@H]1O[C@H](CS(=O)(=O)O)[C@H](O)[C@H](O)[C@H]1O)OC(=O)CCCCCCCCCCCCCCCCC` (stereo partly drawn) [SFAG6, 3-O-(6-deoxy-6-sulfo-α-D-galactopyranosyl)-1,2-di-O-stearoyl-glycerol sodium salt], for which, in assay [2], it took 0.458 µM to reach half-maximal inhibition (IC50).

Values taken from US6740640B2, “Sulfofucosylacylglycerol derivatives and administration thereof as medicaments” (Toyo Suisan Kaisha, Ltd., priority 1999, dated 2004).
